22 compounds from the SangsterLogP compilation can be followed below.

For the compound `CCCCOc1ccc2oc3cc(-c4nnn[nH]4)ccc3c(=O)c2c1`, the logP worked out at 4.69. Under `N#Cc1ccc2oc3ccc(-c4nnn[nH]4)cc3c(=O)c2c1` stands 2.52. Under `CC(O)COc1ccc2oc3cc(C(=O)O)ccc3c(=O)c2c1` (configuration not stated) stands 2.87. The compound `CCSc1ccc2oc3cc(-c4nnn[nH]4)ccc3c(=O)c2c1` yielded a logP of 4.06.

In turn, `Nc1ccc2oc3cc(-c4nnn[nH]4)ccc3c(=O)c2c1` returned a logP of 2.18. Under `COCc1ccc2oc3cc(C(=O)O)ccc3c(=O)c2c1` stands 3.12. The compound `O=C(O)c1ccc2c(=O)c3cc([N+](=O)[O-])ccc3oc2c1` yielded a logP of 3.12. Compound `CCCCOc1ccc2oc3cc(C(=O)O)ccc3c(=O)c2c1` returned a logP of 5. The result for `O=c1c2ccc(-c3nnn[nH]3)cc2oc2ccc([N+](=O)[O-])cc12` reads 2.83.

The compound `O=c1c2ccc(-c3nnn[nH]3)cc2oc2ccc(OCCO)cc12` yielded a logP of 2.31.

Regarding `O=C(O)c1ccc2c(=O)c3cc(OCCO)ccc3oc2c1`, the logP was determined as 2.46. The result for `CCCc1ccc2oc3cc(C(=O)O)ccc3c(=O)c2c1` reads 4.59; that for `CCOc1ccc2oc3cc(-c4nn[nH]n4)ccc3c(=O)c2c1`, 3.67; that for `CCSc1ccc2oc3cc(C(=O)O)ccc3c(=O)c2c1`, 4.36. As for `COc1ccc2oc3cc(C(=O)O)ccc3c(=O)c2c1`, the lipophilicity (logP) came to 3.37. The result for `O=c1c2ccccc2oc2cc(-c3nn[nH]n3)ccc12` reads 2.86. With `CCOc1ccc2oc3cc(C(=O)O)ccc3c(=O)c2c1`, the logP stood at 3.99. Under `O=C(O)c1ccc2c(=O)c3cc(OCCOCCO)ccc3oc2c1` stands 2.62. Under `CCCC(=O)OCCOc1ccc2oc3cc(-c4nnn[nH]4)ccc3c(=O)c2c1` stands 3.73; under `Nc1ccc2oc3cc(C(=O)O)ccc3c(=O)c2c1`, 2.3; under `CCCC(=O)OCCOc1ccc2oc3cc(C(=O)O)ccc3c(=O)c2c1`, 4. Take `COc1ccc2oc3cc(-c4nnn[nH]4)ccc3c(=O)c2c1`: the logP worked out at 3.15.
